The term IC50 denotes the concentration that gives 50% inhibition.

Data set [1] addresses T1, hPepT1 (SLC15A1) (Homo sapiens, UniProt P46059).
T1 construct: host or cells: CHO-K1 (clones CHO-hPepT1-M5 and CHO-hPepT1-200)
T1 sequence (P46059 1-708): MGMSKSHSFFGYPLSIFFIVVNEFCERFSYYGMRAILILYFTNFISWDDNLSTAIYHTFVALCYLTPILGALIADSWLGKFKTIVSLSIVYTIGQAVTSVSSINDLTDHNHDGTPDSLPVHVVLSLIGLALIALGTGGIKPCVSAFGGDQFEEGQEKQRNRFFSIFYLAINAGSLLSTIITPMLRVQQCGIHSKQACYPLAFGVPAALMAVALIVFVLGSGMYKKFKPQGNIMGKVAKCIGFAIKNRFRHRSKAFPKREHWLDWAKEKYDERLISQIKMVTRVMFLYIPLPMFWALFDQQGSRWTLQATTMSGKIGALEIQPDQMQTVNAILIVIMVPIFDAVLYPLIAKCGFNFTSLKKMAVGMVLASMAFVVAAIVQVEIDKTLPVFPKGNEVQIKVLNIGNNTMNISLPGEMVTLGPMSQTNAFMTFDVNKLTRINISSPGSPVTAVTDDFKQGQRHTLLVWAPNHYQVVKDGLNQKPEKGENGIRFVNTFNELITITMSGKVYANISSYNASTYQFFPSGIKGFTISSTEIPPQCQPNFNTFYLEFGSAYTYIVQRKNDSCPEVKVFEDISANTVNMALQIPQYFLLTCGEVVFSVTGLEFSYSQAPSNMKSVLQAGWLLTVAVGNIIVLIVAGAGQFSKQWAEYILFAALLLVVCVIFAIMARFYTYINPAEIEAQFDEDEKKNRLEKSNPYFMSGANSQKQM
The experiment in a line: Inhibition of Gly-Sar uptake in hPepT1 overexpressing CHO-K1 clones (semi-high-throughput 96-well assay). The format is cell-based. The method, then:
In a second step, inhibition of hPepT1 by losartan, one of the strongest inhibitors of this transporter, was tested in both clones. Inhibition experiments were conducted as previously described at a Gly-Sar concentration of 20 µM [13]. In brief, cells were seeded in 96-well plates 1 d before the assay at a concentration of 5 × 10^4 per well. On the day of the inhibition experiment, cells were washed once with MES buffer (100 µL/well) and subsequently incubated with 20 µM Gly-Sar and losartan (0.1–5000 µM), all prepared in MES buffer. After an incubation period of 10 min at 37 °C on a rotary shaker (450 rpm), transport was terminated by removing the solution and washing the cells with ice-cold MES buffer thrice while the plate was kept on ice. Afterwards, cells were lysed in the 96-well cell culture plate with aqueous NH4OH (10%, 50 µL/well), and sample preparation was performed as described previously. Inhibition in the clone CHO-hPepT1-M5 was also tested with Gly-Pro (0.1–5000 µM) as described for losartan.
The cyclic peptides were first evaluated for hPepT1 inhibition with the semi-high-throughput assay in 96-well plates established and validated earlier, but using CHO-hPepT1-M5 instead of Caco-2 cells. Cells were seeded 2 d before the assay at a concentration of 5 × 10^4/well, and the assay was conducted as published previously. Each concentration was tested in octuplet, and each experiment performed thrice.
(§1) Nonlinear regression curves were calculated with GraphPad Prism version 9.3.1 (GraphPad Software Inc., La Jolla, CA, USA) using the four-parameter fit (sigmoidal dose-response curves with variable slope) for inhibition experiments of a one-phase association nonlinear curve fit for the Gly-Sar uptake. […] A p-value < 0.05 was considered significant.

The conditions of data set [2]: oral, Beagle dogs; ref Sauter et al., unpublished data; cited from earlier work.
Data set [3] addresses T1, hPepT1 (SLC15A1). The experiment in a line: Uptake of cyclic peptides in CHO-hPepT1-M5 cells compared with parental CHO-K1 cells, with and without Gly-Pro. In kind it is cell-based. Particulars: for hPepT1 substrate characteristics (conclusion): uptake in CHO-hPepT1-M5 vs CHO-K1 cells, with and without Gly-Pro. As to the method:
For investigating the possible hPepT1 substrate characteristics of the cyclic peptides, their uptake was measured in the CHO-hPepT1-M5 clone with and without inhibition by Gly-Pro and compared with the CHO-K1 parental clone.
For each sample, 5 × 10^5 cells were suspended in 1.5 mL low-binding reaction tubes and washed once in MES buffer. Subsequently, cells were incubated in 100 µL of the respective cyclic peptide solution in MES with or without 20 mM Gly-Pro at 37 °C for 10 min on a rotary shaker (450 rpm). Cells were then washed twice with 0.4 mL ice-cold MES buffer before further proceeding as described in Section 2.8. Each concentration was tested in triplicate, and the experiment was conducted at least thrice.
Cell lysis was performed with 50 µL of 10% aqueous ammonia, and the lysates acidified with 50 µL of 20% aqueous FA to ensure stability of the peptide therapeutics during sample processing. Sample preparation and UPLC–MS/MS measurements were performed as previously described for plasma.
as §1

Where [4] appears, read: CHO-hPepT1-M5 cells, 20 µM Gly-Sar, inhibitor 0.1-5000 µM, MES buffer pH 6.0, 10 min, 37 °C, UPLC-MS/MS, mean ± S.E.M. of three independent experiments, each concentration in sextuplets, read-out: IC50 for inhibition of the Gly-Sar uptake.

Like-named read-outs stand apart in the source and are kept apart here. Numbered stars: 1 amine (or outer) side, 2 acyl side, 3 side chain; on linkers, the order of the positions; unused ones are H or OH. Square brackets hold non-standard residues; d marks the D form. Side chains are listed from the residue outwards. Peptide text beside a SMILES is read from it. * marks the point of attachment. Ethylenediamine = C(CN[*:2])N[*:1]; Hyp = O=C(O)[C@@H]1C[C@@H](O)CN1; Phg = N[C@H](C(=O)O)c1ccccc1; CO = O=C([*:1])[*:2]; Bn = c1ccc(C*)cc1

For the compound `NCC(=O)N1CCC[C@H]1C(=O)O` [Gly-Pro] (H-Gly-Pro-OH), in data set [1] (setting [4]), the IC50 came to 196 ± 41 µM.
For the compound `CCCCc1nc(Cl)c(CO)n1Cc1ccc(-c2ccccc2-c2nn[nH]n2)cc1` [losartan], the “Inhibition of the Gly-Sar uptake, shape of inhibition curve” value in data set [1] (CHO-hPepT1-200 cells, 20 µM Gly-Sar, losartan 0.1-5000 µM, MES buffer pH 6.0, 10 min, 37 °C, compared with CHO-hPepT1-M5) was “the inhibition curve was much flatter”. The IC50 in data set [1] (setting [4]) came out at 37 ± 4.8 µM.
Compound `C[C@@H](O)[C@@H]1NC(=O)[C@H](CCCCN)NC(=O)[C@@H](Cc2c[nH]c3ccccc23)NC(=O)[C@H](Cc2ccccc2)NC(=O)[C@@H](NC(=O)[C@H](N)Cc2ccccc2)CSSC[C@@H](C(=O)N[C@H](CO)[C@@H](C)O)NC1=O` [octreotide] displayed an IC50 in data set [1] of 4200 ± 1600 µM. The Bioavailability in data set [2] was greater than 1%. Further, the “hPepT1 substrate characteristics (conclusion)” value in data set [3] is “not transported by hPepT1”.
`NCCCC[C@@H]1NC(=O)[C@@H](Cc2c[nH]c3ccccc23)NC(=O)[C@H](c2ccccc2)NC(=O)[C@@H]2C[C@@H](OC(=O)NCCN)CN2C(=O)[C@H](Cc2ccccc2)NC(=O)[C@H](Cc2ccc(OCc3ccccc3)cc2)NC1=O` [pasireotide] (cyclo([Hyp]([CO-Ethylenediamine])[Phg][dW]KY(Bn)F)) returned an IC50 in data set [1] of 530 ± 110 µM. Further, the Bioavailability in data set [2] is given as greater than 1%. The “Difference in uptake between cells without (CHO-K1) and with hPepT1 overexpression (CHO-hPepT1-M5)” value in data set [3] (5 x 10^5 cells in suspension, MES buffer pH 6, 10 min, 37 °C, intracellular quantification by UPLC-MS/MS, three experiments in triplicate, two-way ANOVA with Bonferroni post hoc test) is listed as “no obvious difference in the uptake”. Also, the “hPepT1 substrate characteristics (conclusion)” value in data set [3] was “not transported by hPepT1”. In data set [3] (with or without 20 mM Gly-Pro, CHO-hPepT1-M5 and CHO-K1 cells, MES buffer pH 6, 10 min, 37 °C, UPLC-MS/MS, three experiments in triplicate), the “Influence of the PepT1 inhibitor Gly-Pro on the uptake” value was “no significant influence on the uptake”.

The record behind these values is publication PMC9415731, “Evaluation of PepT1 (SLC15A1) Substrate Characteristics of Therapeutic Cyclic Peptides” (Pharmaceutics, 2022).
